Consider 66 compounds from patent US20110245242A1, “Heterocyclically Substituted Anilinopyrimides” (Bayer CropScience AG, priority 2008, published 2011).

In general, chromatographic logP refers to a lipophilicity value derived from retention on a column.

A short description of the first data set: log P by LC-MS, method [b], acid range pH 2.7. The following applies: pH 2.7. It is filed as physicochemical. The method, then:
The log P values were measured in accordance with EEC Directive 79/831 Annex V.A8 by HPLC (High Performance Liquid Chromatography) on reversed-phase columns (C 18) using the methods below:
[b] The LC-MS determination in the acid range was carried out at pH 2.7 using the mobile phases 0.1% aqueous formic acid and acetonitrile (contains 0.1% formic acid)
linear gradient from 10% acetonitrile to 95% acetonitrile.
As for `CC1CCC(=O)N1c1cccc(Nc2ncc(Br)c(NCC(F)F)n2)c1` (stereo not drawn) [Example 167], the log p is 1.91[b].
For `O=C1OCCN1c1cccc(Nc2ncc(Cl)c(NCC(F)F)n2)c1` [Example 154], the log p was 1.63[b].
As to `CC1COC(=O)N1c1cccc(Nc2ncc(Br)c(NCC(F)F)n2)c1` (stereo not drawn) [Example 163], the log p was 1.88[b].
Still for that read-out and setting: as for `O=C1CCCN1c1cccc(Nc2ncc(Cl)c(NC3CCCC3)n2)c1` [Example 42], the figure is 1.92[b]; as for `O=C1CCCN1c1cccc(Nc2ncc(Cl)c(N3CCCC3)n2)c1` [Example 222], 1.67[b]; as for `CC(C)Nc1nc(Nc2cccc(N3CCCCC3=O)c2)ncc1Cl` [Example 114], 1.46[b].
Still for that read-out and setting: as for `O=c1ccccn1-c1cccc(Nc2ncc(Br)c(NC3CCC3)n2)c1` [Example 221], the figure is 1.71[b].
Same read-out and setting: as for `CC(C)Nc1nc(Nc2cccc(N3CCOCC3=O)c2)ncc1Cl` [Example 143], the figure is 1.41[b]; as for `COCC(C)Nc1nc(Nc2cccc(N3C(=O)CC(C)C3=O)c2)ncc1Cl` (stereo not drawn) [Example 68], 1.59[b].
With `CC1CC(C)N(c2cccc(Nc3ncc(Cl)c(NC4CCC4)n3)c2)C1=O` (stereo not drawn) [Example 80], the log p was 2.2[b].
Same read-out and setting: as for `CCCNc1nc(Nc2cccc(N3CCCC3=O)c2)ncc1Cl` [Example 307], the figure is 1.49[b]; as for `CC1CC(=O)N(c2cccc(Nc3ncc(Cl)c(N(C)C4CC4)n3)c2)C1=O` (stereo not drawn) [Example 182], 2.21[b].
As to `CC1COC(=O)N1c1ccc(Nc2ncc(Cl)c(N(C)C3CC3)n2)cc1` (stereo not drawn) [Example 179], the log p is 2.16[b].
Still for that read-out and setting: as for `O=C1CCCN1c1cccc(Nc2ncc(C(F)(F)F)c(N3CCCCC3)n2)c1` [Example 320], the figure is 3.29[b]; as for `C[C@H]1COC(=O)N1c1cccc(Nc2ncc(Cl)c(NC3CCC3)n2)c1` [Example 93], 1.82[b]; as for `CC(C)[C@H]1COC(=O)N1c1cccc(Nc2ncc(Cl)c(NC3CCC3)n2)c1` [Example 100], 2.38[b].
Same read-out and setting: as for `CC1COC(=O)N1c1cccc(Nc2ncc(Cl)c(NCC3CC3)n2)c1` (stereo not drawn) [Example 116], the figure is 1.64[b]; as for `COCC(C)Nc1nc(Nc2cccc(N3CCCC3=O)c2)ncc1C#N` (stereo not drawn) [Example 24], 1.99[b]; as for `Cc1ccc(Nc2ncc(Cl)c(NC3CCC3)n2)cc1N1CCOC1=O` [Example 105], 1.6[b].
On to `CC1CC(Nc2nc(Nc3cccc(N4C(=O)C(C)CC4C)c3)ncc2Br)C1` (stereo not drawn) [Example 291], for which the log p is 2.66[b].
Same read-out and setting: as for `C[C@@H]1COC(=O)N1c1cccc(Nc2ncc(Br)c(NC3CC3)n2)c1` [Example 104], the figure is 2.03[b]; as for `O=C1N(CCCl)CCN1c1cccc(Nc2ncc(Br)c(NC3CC3)n2)c1` [Example 285], 1.92[b]; as for `CC(C)Nc1nc(Nc2cccc(N3C(=O)OCC3C)c2)ncc1Br` (stereo not drawn) [Example 147], 1.73[b].
Take `O=C1COCCN1c1cccc(Nc2ncc(Br)c(NCC(F)F)n2)c1` [Example 166]: the log p is 1.51[b].
Same read-out and setting: as for `O=C1OCCN1c1cccc(Nc2ncc(Br)c(NCC(F)F)n2)c1` [Example 162], the figure is 1.71[b]; as for `O=C1OCC(c2ccccc2)N1c1cccc(Nc2ncc(Cl)c(NC3CC3)n2)c1` (stereo not drawn) [Example 88], 2.27[b].
On the same count and under the same terms, the value for `C[C@@H]1C[C@H](C)N(c2cccc(Nc3ncc(Br)c(NCC(F)F)n3)c2)C1=O` [Example 189] was 3.24[b]; that for `CC1CCC(=O)N1c1cccc(Nc2ncc(Cl)c(NCC(F)(F)F)n2)c1` (stereo not drawn) [Example 174] was 2.16[b].
Still for that read-out and setting: as for `COCC(C)Nc1nc(Nc2cccc(N3C(=O)CC(C)C3=O)c2)ncc1Br` (stereo not drawn) [Example 70], the figure is 1.68[b].
For `COCC(C)Nc1nc(Nc2ccc(N3C(=O)OCC3C)cc2)ncc1Br` (stereo not drawn) [Example 4], the log p is 1.61[b].
On the same count and under the same terms, as for `CN1CCN(c2cccc(Nc3ncc(I)c(NC4CC4)n3)c2)C1=O` [Example 296], the figure is 1.57[b]; as for `CC1CC(C)N(c2cccc(Nc3ncc(Cl)c(NCC(F)F)n3)c2)C1=O` (stereo not drawn) [Example 157], 2.11[b]; as for `CC1(C)CC1Nc1nc(Nc2cccc(N3CCCC3=O)c2)ncc1C(F)(F)F` (stereo not drawn) [Example 321], 3.04[b].
Take `CN1CCN(c2cccc(Nc3ncc(C(F)(F)F)c(NC4CC4)n3)c2)C1=O` [Example 293]: the log p is 2.22[b].
On to `O=C1OCCN1c1cccc(Nc2ncc(Br)c(NC3CCC3)n2)c1` [Example 72], for which the log p was 1.8[b].
Turning to `CC(C)Nc1nc(Nc2cccc(N3CCOCC3=O)c2)ncc1Br` [Example 151], the log p was 1.47[b].
For `CC(C)Nc1nc(Nc2cccc(N3C(=O)CC(C)C3=O)c2)ncc1Br` (stereo not drawn) [Example 153], the log p is 1.68[b].
The same measure, in the same setting: the value for `CC1CC(Nc2nc(Nc3cccc(N4CCN(C)C4=O)c3)ncc2Br)C1` (stereo not drawn) [Example 290] was 2[b]; that for `O=C1OCC(c2ccccc2)N1c1cccc(Nc2ncc(Br)c(NC3CCC3)n2)c1` (stereo not drawn) [Example 90] was 2.8[b]; that for `CC(C)Nc1nc(Nc2cccc(N3CCCCC3=O)c2)ncc1Br` [Example 134] was 1.57[b].
On to `COCC(C)Nc1nc(Nc2ccc(N3C(=O)OCC3C)cc2)ncc1Cl` (stereo not drawn) [Example 3], for which the log p was 1.54[b].

Another data set in a line: log P by HPLC on reversed-phase columns (C 18), method [a], acidic range pH 2.3. In kind it is physicochemical. The settings on record: pH 2.3. The method, then: The log P values were measured in accordance with EEC Directive 79/831 Annex V.A8 by HPLC (High Performance Liquid Chromatography) on reversed-phase columns (C 18) using the methods below: [a] The determination was carried out in the acidic range at pH 2.3 using the mobile phases 0.1% aqueous phosphoric acid and acetronitrile linear gradient from 10% acetonitrile to 95% acetronitrile.
For `O=C1CCC(CO)N1c1cccc(Nc2ncc(Cl)c(NC3CC3)n2)c1` (stereo not drawn) [Example 86], the log p is 0.98[a].
Turning to `CC(C)[C@H]1COC(=O)N1c1cccc(Nc2ncc(Cl)c(N(C)C3CC3)n2)c1` [Example 115], the log p is 3.09[a].
On to `CC1COC(=O)N1c1cccc(Nc2ncc(Cl)c(NC3CCC3)n2)c1` (stereo not drawn) [Example 57], for which the log p was 1.81[a].
The same measure, in the same setting: the value for `C[C@@H]1COC(=O)N1c1cccc(Nc2ncc(Cl)c(NC3CC3)n2)c1` [Example 103] was 1.8[a].
Turning to `O=C1CCCCCN1c1cccc(Nc2ncc(Cl)c(NC3CC3)n2)c1` [Example 55], the log p was 1.7[a].
The same measure, in the same setting: as for `CC(C)CC1COC(=O)N1c1cccc(Nc2ncc(Br)c(NC3CC3)n2)c1` (stereo not drawn) [Example 48], the figure is 2.69[a].
Consider `C[C@@H]1COC(=O)N1c1cccc(Nc2ncc(Cl)c(NC3CCC3)n2)c1` [Example 102], for which the log p is 1.56[a].
On the same count and under the same terms, as for `O=C1CCCCN1c1cccc(Nc2ncc(F)c(NC3CCC3)n2)c1` [Example 58], the figure is 1.29[a].

The same data set, now with this note: pH 2.3, log P (pH 2.3).
Compound `CCC1CCC(=O)N1c1cccc(N)c1` (stereo not drawn) [1-(3-Aminophenyl)-5-ethylpyrrolidin-2-one] displayed a chromatographic logP of 0.94.
With `COc1cc(N)cc(N2CCCC2=O)c1` [1-(3-Amino-5-methoxyphenyl)pyrrolidin-2-one], the chromatographic logP came out at 0.6.
Regarding `Fc1cnc(Cl)nc1NC1CCC1` [Example V-28, 5-Fluoro-2-chloro-N-cyclobutylpyrimidin-4-amine], the chromatographic logP stood at 2.17.
The same measure, in the same setting: the value for `FC(F)(F)CNc1nc(Cl)ncc1Cl` [Example V-5, 2,5-Dichloro-N-(2,2,2-trifluoroethyl)pyrimidin-4-amine] was 2.26.
On the same count and under the same terms, as for `CCC1CC(C)C(=O)N1c1cccc(N)c1` (stereo not drawn) [1-(3-Aminophenyl)-5-ethyl-3-methylpyrrolidin-2-one], the figure is 1.31; as for `O=C1CCCN1c1cc([N+](=O)[O-])ccc1F` [1-(2-Fluoro-5-nitrophenyl)pyrrolidin-2-one], 1.47; as for `Nc1ccc(F)c(N2CCCC2=O)c1` [1-(5-Amino-2-fluorophenyl)pyrrolidin-2-one], 0.31.
Same read-out and setting: as for `Clc1ncc(Cl)c(N2CCOCC2)n1` [Example V-33, 4-(2,5-Dichloropyrimidin-4-yl)morpholine], the figure is 1.99; as for `FC(F)(F)Oc1ccc(Nc2ncc(Cl)c(NC3CC3)n2)cc1Br` [VII-3, 5-Chloro-N^2-[3-bromo-4-(trifluoromethoxy)phenyl]-N^4-cyclopropylpyrimidine-2,4-diamine], 3.99; as for `Clc1ncc(Cl)c(N2CCSCC2)n1` [Example V-32, 4-(2,5-Dichloropyrimidin-4-yl)thiomorpholine], 2.84.
For `COCC(C)Nc1nc(Cl)ncc1C#N` (stereo not drawn) [Example V-30, 2-Chloro-4-[(1-methoxypropan-2-yl)-amino]pyrimidine-5-carbonitrile], the chromatographic logP is 1.83.
`CCOC(=O)[C@@H]1CCC(=O)N1c1cccc(N)c1` [Ethyl 1-(3-aminophenyl)-5-oxo-L-prolinate] came in with a chromatographic logP of 0.84.
Same read-out and setting: as for `CN(c1nc(Cl)ncc1Cl)C1CC1` [Example V-26, 2,5-Dichloro-N-methyl-N-cyclopropylpyrimidin-4-amine], the figure is 2.82.
On to `Clc1cnc(Nc2ccc(I)cc2)nc1NC1CC1` [5-Chloro-N^4-cyclopropyl-N^2-(4-iodophenyl)pyrimidine-2,4-diamine], for which the chromatographic logP worked out at 2.73.
Same read-out and setting: as for `CCC(CC(C)C(=O)OC)[N+](=O)[O-]` (stereo not drawn) [Methyl 2-methyl-4-nitrohexanoate], the figure is 2.23; as for `Cc1ccc(Nc2ncc(Cl)c(NC3CC3)n2)cc1Br` [VII-4, 5-Chloro-N^2-[3-bromo-4-(methyl)phenyl]-N^4-cyclopropylpyrimidine-2,4-diamine], 2.91; as for `O=C1CCCN1c1cccc(Nc2ncc(C(F)(F)F)c(Cl)n2)c1` [VI-1, 1-(3-{[4-Chloro-5-(trifluoromethyl)pyrimidin-2-yl]amino}phenyl)pyrrolidin-2-one], 2.98.
